Earlier results as cited in patent US9211341B2, “Method of manufacturing a pharmaceutical composition having chelating type complex micelles” (Original BioMedicals Co., Ltd, priority 2011, dated 2015).

Structure (SMILES): NCCCNCCSP(=O)(O)O [amifostine]
- blood half-life (βt1/2) (after injection): 8.8 min
- time at which the cytoprotective effect appears (after injection): 5 to 10 min
- time to reach steady state after distribution to tissues and dephosphorylation (after injection): about 10 minutes
- concentration in normal cells (kidney, lung, liver, skin, bone marrow, intestine, spleen) relative to cancer cells (following injection): 10 times
- plasma clearance, fraction cleared (within 6 minutes): approximately 90%
